This is an account of results in US8383637B2, “2-amino-quinazoline derivatives useful as inhibitors of β-secretase (BACE)” (Jansssen Pharmaceutica N.V., priority 2004, dated 2013).

Usually melting point stands for the temperature, or range, at which the solid turns liquid. One may read the IC50 as the concentration that inhibits the measured activity by half. As a reminder, the Ki is the equilibrium dissociation constant of an inhibitor or competing ligand from its target. A word on the inhibition: it is the drop in the measured response relative to a control, in per cent.

Data set [1] deals with T1, β-secretase(BACE) (Homo sapiens, UniProt P56817).
T1 construct: purchased Panvera
T1 sequence (P56817 46-501): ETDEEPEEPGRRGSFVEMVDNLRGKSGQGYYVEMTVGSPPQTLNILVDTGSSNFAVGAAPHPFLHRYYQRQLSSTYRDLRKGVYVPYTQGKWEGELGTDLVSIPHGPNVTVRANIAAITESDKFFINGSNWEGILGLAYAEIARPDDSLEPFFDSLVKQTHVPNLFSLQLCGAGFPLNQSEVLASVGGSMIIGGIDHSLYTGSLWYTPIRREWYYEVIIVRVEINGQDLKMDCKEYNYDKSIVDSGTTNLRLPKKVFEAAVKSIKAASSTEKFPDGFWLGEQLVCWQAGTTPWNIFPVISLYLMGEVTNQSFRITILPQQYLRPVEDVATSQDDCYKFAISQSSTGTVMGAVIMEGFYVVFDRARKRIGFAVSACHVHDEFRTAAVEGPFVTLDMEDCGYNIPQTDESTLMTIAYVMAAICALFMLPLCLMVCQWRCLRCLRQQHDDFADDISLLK
Nature of the data set: BACE Assay-1 (MCA-substrate, IC50). The data set is classed as biochemical. Conditions: procedure of Example 158; read-out: IC50 μM (158). Summed up:
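Human BACE (work solution 10 μg/mL) with MCA-peptide substrate (stock 2.0 mg/mL) in 0.05 M citrate buffer, pH 5.0, with PEG8000. Fluorescence read at T0 and T60; compounds tested at multiple concentrations and IC50 calculated from these readings.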

For data set [2], the target named is T1, β-secretase(BACE). Nature of the data set: BACE Assay-2 (FS1 substrate, IC50 and Ki). Type of data set: biochemical. Conditions: procedure of Example 159, FS1 substrate; for Ki: read-out: Ki μM (159).
Data set [3] concerns the target T1, β-secretase(BACE). Nature of the data set: BACE % Inhibition Assay ((Aedens)-[…]-(Dabcyl K-amide) substrate). Type of data set: biochemical. Conditions: % error ±10%; for inhibition at 3 µM: 3 μM test compound; for inhibition at 3 µM / inhibition at 10 µM: read-out: % Inhibition; for inhibition at 10 µM: 10 μM test compound.
For data set [4], the target named is T1, β-secretase(BACE). Nature of the data set: BACE FS1% Inhibition Assay. The data set is classed as biochemical. Conditions: FS1 substrate; for inhibition at 0.3 µM: 0.3 μM test compound; for inhibition at 1 µM: 1 μM test compound; for inhibition at 3 µM: 3 μM test compound. Summed up: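 Human BACE (4 μg/mL working solution) preincubated 20 min at room temperature with compound, then FS1 substrate (300 μg/mL working solution) added and incubated 1 h at room temperature. Percent inhibition calculated at each compound concentration against blank and vehicle controls.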

Another data set has as its target human BACE-1 (Homo sapiens, UniProt P56817). Nature of the data set: BACE Assay (CEREP). Type of data set: biochemical. Conditions: recombinant enzyme, 60 min at 37° C., pH 4.5; for inhibition at 0.3 µM: test compound 0.3 μM. How it is done:
The test compound, reference compound or water (control) were added to a buffer containing 0.09 M sodium acetate (pH 4.5) and 0.25 μg BACE-1. Compound interference with the fluorimetric detection method due to autofluorescence was then checked by measurements at the wavelengths defined to evaluate the enzyme activity. […] For control basal measurement, the substrate was omitted from the reaction mixture. […] The standard inhibitory reference compound was OM99-2, which was tested in each experiment at several concentrations to obtain an inhibition curve from which its IC50 value was calculated.

Where [5] appears, read: read-out: % Inhibition (FS) 0.3 μM.
[6] abbreviates: read-out: % Inhibition (FS) 1 μM.
The mark [7] stands for this setting: read-out: % Inhibition (FS) 3 μM.

human BACE-1, sequence (P56817 46-501): as above

`CN(C(=O)CCN1Cc2cc(C(=O)c3ccccc3)ccc2N=C1N)C1CCCCC1` showed a melting point of 198.1 °C.
Turning to `NC1=Nc2ccc(Oc3ccccc3)cc2CN1Cc1cccc(C(=O)N(C2CCCCC2)C2CCCCC2)c1` [Compound 98], the IC50 on β-secretase(BACE) [1] is 0.2 µM. Also, on β-secretase(BACE) [2], the IC50 came to 2.3 µM and the Ki came out at 1.1 µM. In addition, at β-secretase(BACE) [3], the inhibition at 3 µM was determined as 76% and the inhibition at 10 µM worked out at 99%. For the same compound, the inhibition at 0.3 µM on β-secretase(BACE) [4] (setting [5]) stood at 49%. The inhibition at 1 µM at β-secretase(BACE) [4] (setting [6]) is 93%. For the same compound, the inhibition at 3 µM on β-secretase(BACE) [4] (setting [7]) was 114%.
Regarding `CN(C(=O)c1cccc(CN2Cc3cc(Oc4cccc(NS(=O)(=O)c5ccccc5)c4)ccc3N=C2N)c1)C1CCCCC1` [Compound 110], the IC50 at β-secretase(BACE) [1] worked out at 0.053 µM. Besides, at β-secretase(BACE) [2], inhibition was half-maximal at 1.24 µM (IC50) and the Ki was 0.4 µM. Further, at β-secretase(BACE) [3], the inhibition at 3 µM came to 75% and the inhibition at 10 µM stood at 96%. Besides, the inhibition at 0.3 µM on β-secretase(BACE) [4] (setting [5]) is less than 30%. Moreover, the inhibition at 1 µM at β-secretase(BACE) [4] (setting [6]) is 30%. Also, the inhibition at 3 µM at β-secretase(BACE) [4] (setting [7]) was found to be 84%.
For `NC1=Nc2ccc(Oc3ccccc3)cc2CN1CCNC(=O)c1ccccc1` [Compound 154], the inhibition constant (Ki) on β-secretase(BACE) [2] was 0.61 µM. In addition, at β-secretase(BACE) [4] (setting [7]), the inhibition at 3 µM was 56%. Further, the inhibition at 10 µM at β-secretase(BACE) [4] (10 μM test compound, read-out: % Inhibition (FS) 10 μM) was determined as 79%. Further, the IC50 on human BACE-1 was more than 1000 nM.
On to `NC1=Nc2ccc(Oc3ccccc3)cc2CN1C(CCNC(=O)CC1CCCC1)C1CCCCC1` (stereo not drawn) [Compound 393], for which, on β-secretase(BACE) [1], the IC50 stood at 0.15 µM. Further, the Ki at β-secretase(BACE) [2] is 0.29 µM. Moreover, on β-secretase(BACE) [3] (0.3 μM test compound), the inhibition at 0.3 µM was less than 30%. The inhibition at 1 µM against β-secretase(BACE) [3] (1 μM test compound) stood at 52%. Moreover, the inhibition at 3 µM at β-secretase(BACE) [3] is 113%.
`NC1=Nc2ccc(Oc3ccccc3)cc2CN1[C@@H](CCC(=O)N(Cc1ncc[nH]1)C1CCCCC1)C1CCCCC1` [Compound 788]: at β-secretase(BACE) [4] (read-out: % Inhibition (FS)), the inhibition at 0.3 µM turned out to be 110%, the inhibition at 1 µM stood at 114% and the inhibition at 3 µM was 118%. On human BACE-1, the IC50 came out at 160 nM and the inhibition at 0.3 µM stood at 97%.
On to `NC1=Nc2ccc(Oc3ccccc3)cc2CN1[C@@H](CCC(=O)N(Cc1ccncc1)C1CCCCC1)C1CCCCC1` [Compound 789], for which, on β-secretase(BACE) [4] (read-out: % Inhibition (FS)), the inhibition at 0.3 µM was determined as 80%, the inhibition at 1 µM stood at 99% and the inhibition at 3 µM was determined as 106%. Also, at human BACE-1, the IC50 was found to be 78 nM and the inhibition at 0.3 µM was 94%.
For `NC1=Nc2ccc(Oc3ccccc3)cc2CN1[C@@H](CCC(=O)N(Cc1nc[nH]n1)C1CCCCC1)C1CCCCC1` [Compound 790], on human BACE-1, the IC50 is 93 nM and the inhibition at 0.3 µM is 98%.
With `NC1=Nc2ccc(Oc3ccccc3)cc2CN1[C@@H](CCC(=O)N1C2CCCCC2C[C@H]1C(=O)O)C1CCCCC1` (stereo partly drawn) [Compound 795, 1-[4-(2-Amino-6-phenoxy-4H-quinazolin-3-yl)-4S-cyclohexyl-butyryl]-octahydro-indole-2S-carboxylic acid], on human BACE-1, the IC50 turned out to be 150 nM and the inhibition at 0.3 µM came to 98%.
Turning to `NC1=Nc2ccc(Oc3ccccc3)cc2CN1[C@@H](CCC(=O)N(Cc1cnc[nH]1)C1CCCCC1)C1CCCCC1` [Compound 796], on human BACE-1, the IC50 was determined as 190 nM.
Regarding `CC(=O)OCC1OC(OCCN(C(=O)CCC(C2CCCCC2)N2Cc3cc(Oc4ccccc4)ccc3N=C2N)C2CCCCC2)C(OC(C)=O)C(OC(C)=O)C1OC(C)=O` (stereo not drawn) [Compound 797], on human BACE-1, the IC50 amounted to 120 nM and the inhibition at 0.3 µM worked out at 95%.
The matching figures for `NC1=Nc2ccc(Oc3ccccc3)cc2CN1[C@@H](CCC(=O)N(CCO[C@@H]1O[C@H](CO)[C@@H](O)[C@H](O)[C@H]1O)C1CCCCC1)C1CCCCC1` [Compound 798, 4-(2-Amino-6-phenoxy-4H-quinazolin-3-yl)-4S,N-dicyclohexyl-N-[2R-(3R,4S,5S-trihydroxy-6R-hydroxymethyl-tetrahydro-pyran-2-yloxy)-ethyl]-butyramide]: 74 nM and 95%.
